The source of these data is patent US20100298329A1, “TOLPERISONE AND TOLPERISONE-LIKE DRUGS FOR THE TREATMENT OF K-RAS ASSOCIATED CANCERS” (Massachusette Institute of Technology, priority 2007, published 2010).

Experiment [1] relates to K-Ras mutant cells (cells with Kras G12D mutation). In words: FACS analysis of cell death and proliferation (Tunnel/PI staining, DNA content, BrdU staining). In kind it is cell-based. As for the experimental part: The effects of lanperisone on cell proliferation and cell death were evaluated based on a FACS analysis. Tunnel staining (for dying cells) and PI staining (excluded by living cells) were used to evaluate cell death in lanperisone and DMSO treated wild-type and K-Ras mutant cells (cells with a Kras G12D mutation).
In general terms: A flow cytometer gives signals particle by particle.

For experiment [2], the system named is wild-type and K-rasG12D MEFs. In words: Gene expression profiling (GSEA, Connectivity Map). In kind it is cell-based, mouse. As for the experimental part:
(§1) To study the selectivity of lanperisone for K-ras mutant cells, gene expression profiling experiments were carried out using wild-type and K-rasG12D MEFs treated with lanperisone or control DMSO. The gene expression signatures associated with lanperisone treatment were compared with those observed upon 1) manipulation of any of a number of defined biological pathways (i.e., Gene Set Enrichment Analysis or GSEA) and 2) treatment with small molecules with known targets including FDA-approved drugs (ie the Connectivity Map or CMAP). […] This mechanism of cell death occurs in both mouse and human cells, as well as in both fibroblast and epithelial cell lines.

For experiment [3], the system named is K-rasG12D-expressing cells. Kind of experiment: Additional biochemical experiments on mechanism of cell death (reactive oxygen species). In kind it is cell-based. The settings on record: mouse and human cells, fibroblast and epithelial cell lines. Here is the method:
as §1

The test system of experiment [4] is subcutaneous K-ras G12D-expressing mouse fibroblast tumors. In words: Xenograft tumor size in mice. In kind it is in vivo. As to conditions: 100-200 mg/kg once a day, 7 consecutive days, vs matched DMSO controls. As for the experimental part: The effectiveness of one or more compounds of the invention (e.g., lanperisone) was evaluated in vivo using xenografts. The effect on xenograft tumor size was evaluated in mice by administering a compound of the invention at a dose of 100-200 mg/kg once a day (e.g., via oral administration in water). The compounds were also administered intraperitoneally. Mice harboring established, subcutaneous tumors measuring at least 1 cm were treated with lanperisone for 7 consecutive days. […] These findings confirm the in vivo efficacy of lanperisone in targeting K-ras mutant tumors.

Experiment [5] concerns mouse embryonic fibroblasts (MEFs) expressing oncogenic K-Ras. In words: Cell Titer Glo cell viability screen, mutant K-Ras vs wild-type MEFs. In kind it is cell-based. As to conditions: cell viability by intracellular ATP. The text has this: These MEFs have been extensively characterized at the molecular and cellular level. […] The inclusion of wild-type cells allowed for the elimination of general cytotoxic compounds and for the targeting of molecular pathways activated by oncogenic K-Ras.
(§2) The differential activity of tolperisone confirmed using other assays, such as BrdU cytoblot assay, which measures proliferation based upon incorporation of BrdU.

Another experiment relates to K-Ras mutant cells. In words: BrdU cytoblot assay (proliferation by BrdU incorporation). In kind it is cell-based, mouse. The settings on record: proliferation based upon incorporation of BrdU.
Source text: as §2
(In general: Incorporation of labelled thymidine or its analogues reports DNA synthesis.)

`C[C@H](CN1CCCC1)C(=O)c1ccc(C(F)(F)F)cc1` [lanperisone]: the “cell cycle phase specificity of cell death (cellular DNA content)” value in experiment [1] (FACS, FIG. 3B) is given as “not specific to any particular phase of the cell cycle”. The “cellular proliferation (BrdU staining)” value in experiment [1] (FACS, FIG. 3C) is “no specific defect in cellular proliferation”. Besides, the “cell death (Tunnel staining / PI staining)” value in experiment [1] (at 6 hours, 10 μM and 20 μM, Kras G12D cells relative to wild-type cells) is given as “preferentially caused cell death in K-Ras mutant cells”. In experiment [2] (calcium modulators, HDAC inhibitors, HIF activators), the “Connectivity Map connectivities with other classes of small molecules” value was “Numerous connectivities”. The GSEA pathway enrichment result in experiment [2] (lanperisone-treated MEFs vs DMSO) is “marked enrichment of hypoxia as well as oxidative stress pathways”. Moreover, the “mechanism of selective cell killing” value in experiment [3] is on record as “selectively kills K-rasG12D-expressing cells by inducing reactive oxygen species”. In addition, the “tumor size at the end of the treatment period” value in experiment [4] is recorded as “significantly smaller tumors than matched controls”.

`Cc1ccc(C(=O)C(C)CN2CCCCC2)cc1` (stereo not drawn) [tolperisone]: the “concentration at which differential activity was shown (as low as)” value in experiment [5] came out at 5 microns. The “differential activity in BrdU cytoblot assay” value in the experiment on K-Ras mutant cells is listed as “confirmed”.
